Source: US11236046B2, “Substituted heterocyclic sulfonamide compounds useful as TRPA1 modulators” (Genentech, Inc., priority 2013, dated 2022)

target: human TRPA1 (Homo sapiens (Human), UniProt O75762); assay: FLIPR Tetra calcium influx assay, block of cinnamaldehyde-induced calcium influx in CHO cells expressing TRPA1 (human); format: cell-based; settings: 20 min compound incubation, 75 uM cinnamaldehyde (~EC80), Hill coefficient fixed to 1.5, read-out: hTRPA1 AUC IC50
Protocol: IC50 Determinations of Exemplified Compounds.
IC50s (effective concentration) of compounds on the human and rat TRPA1 channels were determined using a FLIPR Tetra instrument. CHO cells expressing TRPA1 were plated into 384-well plates, incubated overnight at 37C, and loaded with BD calcium indicator dye for 1 hr at 37° C. followed by 15 minutes. at room temperature. The assay buffer was Hank's Balanced Salt Solution (HBSS) containing 20 mM HEPES (pH readjusted to 7.4) along with 0.02% BSA.
Following dye load and plate cool down, compounds were added to the cells using FLIPR Tetra. Plates were then incubated with compounds for 20 minutes at room temperature prior to adding agonist. Following this incubation, ˜EC80 concentration of cinnamaldehyde (75 uM for human TRPA1 and 45 uM for rat TRPA1) was added to active the channels and block of cinnamaldehyde induced calcium influx was measured.
Fixing the Hill coefficient will generally reduce variability of the IC50 determination. The IC50s were individually examined to make sure the MIN and MAX points were set correctly prior to validation of the results.

human TRPA1, sequence (O75762 whole entry): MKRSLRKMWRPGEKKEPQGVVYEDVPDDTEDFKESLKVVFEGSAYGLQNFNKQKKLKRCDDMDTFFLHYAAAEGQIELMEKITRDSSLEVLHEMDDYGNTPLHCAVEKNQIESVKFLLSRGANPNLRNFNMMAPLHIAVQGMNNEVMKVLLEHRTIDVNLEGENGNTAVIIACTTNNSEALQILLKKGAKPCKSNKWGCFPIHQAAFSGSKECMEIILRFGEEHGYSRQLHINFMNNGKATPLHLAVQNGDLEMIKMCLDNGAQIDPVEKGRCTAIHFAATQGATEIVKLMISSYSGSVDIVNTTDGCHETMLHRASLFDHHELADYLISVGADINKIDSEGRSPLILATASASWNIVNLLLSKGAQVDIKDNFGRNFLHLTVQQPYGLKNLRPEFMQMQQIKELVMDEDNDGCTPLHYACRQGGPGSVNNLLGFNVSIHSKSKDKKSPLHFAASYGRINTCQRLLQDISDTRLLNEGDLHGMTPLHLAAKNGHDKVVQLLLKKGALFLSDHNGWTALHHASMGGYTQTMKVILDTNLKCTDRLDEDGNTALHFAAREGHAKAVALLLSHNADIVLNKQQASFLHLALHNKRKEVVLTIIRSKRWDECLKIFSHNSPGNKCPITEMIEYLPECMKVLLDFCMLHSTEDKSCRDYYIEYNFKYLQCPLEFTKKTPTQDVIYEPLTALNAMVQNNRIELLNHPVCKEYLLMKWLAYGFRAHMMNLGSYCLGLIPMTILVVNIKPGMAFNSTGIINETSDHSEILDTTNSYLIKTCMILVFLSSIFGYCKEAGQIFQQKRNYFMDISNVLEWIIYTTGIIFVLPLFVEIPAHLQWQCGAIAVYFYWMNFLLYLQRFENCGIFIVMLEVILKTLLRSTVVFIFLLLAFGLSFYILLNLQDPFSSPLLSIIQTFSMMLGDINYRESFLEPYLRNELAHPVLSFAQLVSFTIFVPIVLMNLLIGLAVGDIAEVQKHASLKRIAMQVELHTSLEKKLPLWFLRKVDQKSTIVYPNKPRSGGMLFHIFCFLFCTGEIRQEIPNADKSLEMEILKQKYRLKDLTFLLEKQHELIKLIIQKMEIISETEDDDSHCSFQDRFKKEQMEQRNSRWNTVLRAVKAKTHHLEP

Structure (SMILES)	IC50 [nM]
C[C@H]1CC[C@@H](C(=O)NCc2cc(-c3ccc(C(F)(F)F)nc3)ncn2)N1S(=O)(=O)c1ccc(F)cc1 [Example 41, (2S,5S)-1-[(4-fluorobenzene)sulfonyl]-5-methyl-N-([6-[6-(trifluoromethyl)pyridin-3-yl]pyrimidin-4-yl]methyl)pyrrolidine-2-carboxamide]	5
O=C(NCc1cc(-c2cnc(C(F)(F)F)nc2)ccc1F)[C@@H]1[C@H]2C[C@H]2CN1S(=O)(=O)c1ccc(F)cc1 [Example 183, (1S,2S,5R)—N-(2-fluoro-5-(2-(trifluoromethyl)pyrimidin-5-yl)benzyl)-3-((4-fluorophenyl)sulfonyl)-3-azabicyclo[3.1.0]hexane-2-carboxamide]	3
O=C(NCc1cc(-c2ccc(C(F)F)c(F)c2)ncn1)[C@@H]1C[C@@H](F)CN1S(=O)(=O)c1ccc(F)cc1 [Example 59, (2S,4R)—N-[[6-[4-(difluoromethyl)-3-fluoro-phenyl]pyrimidin-4-yl]methyl]-4-fluoro-1-(4-fluorophenyl)sulfonyl-pyrrolidine-2-carboxamide]	29
O=C(NCc1cc(F)cc(C2CCC(C(F)(F)F)CN2)c1)[C@@H]1C[C@@H](F)CN1S(=O)(=O)c1ccc(F)cc1 (stereo partly drawn) [Example 74, (2S,4R)-4-fluoro-1-(4-fluorophenyl)sulfonyl-N-[[3-fluoro-5-[5-(trifluoromethyl)-2-piperidyl]phenyl]methyl]pyrrolidine-2-carboxamide]	192
COc1nn(-c2ccc(C(F)(F)F)nc2)cc1CNC(=O)[C@]1(C)C[C@@H](F)CN1S(=O)(=O)c1ccc(F)cc1 [Example 125, (2S,4R)-4-fluoro-1-[(4-fluorobenzene)sulfonyl]-N-([3-methoxy-1-[6-(trifluoromethyl)pyridin-3-yl]-1H-pyrazol-4-yl]methyl)-2-methylpyrrolidine-2-carboxamide]	9
O=C(NCc1cc(N2CCC(OC(F)(F)F)CC2)c(F)cn1)[C@@H]1C[C@@H](F)CN1S(=O)(=O)c1ccc(F)cc1 [Example 66, (2S,4R)-4-fluoro-1-(4-fluorophenyl)sulfonyl-N-[[5-fluoro-4-[4-(trifluoromethoxy)-1-piperidyl]-2-pyridyl]methyl]pyrrolidine-2-carboxamide]	22
O=C(NCc1cc(-c2cnc(C(F)(F)F)cn2)ccc1F)[C@@H]1C[C@@H](F)CN1S(=O)(=O)c1ccc(F)cc1 [Example 54, (2S,4R)-4-fluoro-N-(2-fluoro-5-(5-(trifluoromethyl)pyrazin-2-yl)benzyl)-1-((4-fluorophenyl)sulfonyl)pyrrolidine-2-carboxamide]	13
O=C(NCc1cc(F)cc(-c2ccc(C(F)(F)F)nc2)c1)[C@@H]1C[C@@H](F)CN1S(=O)(=O)c1ccc(F)cc1 [Example 139, (2S,4R)-4-fluoro-1-(4-fluorophenyl)sulfonyl-N-[[3-fluoro-5-[6-(trifluoromethyl)-3-pyridyl]phenyl]methyl]pyrrolidine-2-carboxamide]	16
C[C@@H]1[C@@H](C(=O)NCc2cc(-c3ccc(C(F)(F)F)nc3)ncn2)N(S(=O)(=O)c2ccc(F)cc2)C[C@@H]1F (single isomer, unassigned) [Example 106]	280
COc1nc(CNC(=O)[C@@H]2C[C@@H](F)CN2S(=O)(=O)c2ccc(F)cc2)cc(-c2ccc(C(F)(F)F)nc2)n1 [Example 127, (2S,4R)-4-fluoro-1-[(4-fluorobenzene)sulfonyl]-N-([2-methoxy-6-[6-(trifluoromethyl)pyridin-3-yl]pyrimidin-4-yl]methyl)pyrrolidine-2-carboxamide]	97
O=C(NCc1cc(Cl)nc(-c2ccc(C(F)(F)F)nc2)c1)[C@@H]1C[C@@H](F)CN1S(=O)(=O)c1ccc(F)cc1 [Example 84, (2S,4R)—N-[[2-chloro-6-[6-(trifluoromethyl)-3-pyridyl]-4-pyridyl]methyl]-4-fluoro-1-(4-fluorophenyl)sulfonyl-pyrrolidine-2-carboxamide]	14
O=C(NCc1ccc(F)c(-c2cnc(C(F)(F)F)cn2)c1)[C@@H]1[C@@H](F)CCN1S(=O)(=O)c1ccc(F)cc1 [Example 97, (2R,3S)-3-fluoro-N-([4-fluoro-3-[5-(trifluoromethyl)pyrazin-2-yl]phenyl]methyl)-1-[(4-fluorobenzene)sulfonyl]pyrrolidine-2-carboxamide]	24
O=C(NCc1cc(-c2cnc(C(F)(F)F)nc2)ccc1F)[C@]12C[C@H]1CCN2S(=O)(=O)c1ccc(F)cc1 [Example 182, (1R,5S)-4-(4-fluorophenyl)sulfonyl-N-[[2-fluoro-5-[2-(trifluoromethyl)pyrimidin-5-yl]phenyl]methyl]-4-azabicyclo[3.1.0]hexane-5-carboxamide]	21
O=C(NCc1cc(-c2ccc(C(F)(F)F)nc2)ncn1)C1C2CC(CC2F)N1S(=O)(=O)c1ccc(F)cc1 (centres unmarked) [Example 51, 5-fluoro-2-(4-fluorophenyl)sulfonyl-N-[[6-[6-(trifluoromethyl)-3-pyridyl]pyrimidin-4-yl]methyl]-2-azabicyclo[2.2.1]heptane-3-carboxamide]	52
O=C(NCc1cc(-c2ccc(C(F)(F)F)nc2)ncn1)[C@@H]1C[C@@H](F)CN1S(=O)(=O)c1ccc(F)cc1 [Example 154, (2S,4R)-4-fluoro-1-(4-fluorophenylsulfonyl)-N-((6-(6-(trifluoromethyl)pyridin-3-yl)pyrimidin-4-yl)methyl)pyrrolidine-2-carboxamide]	97
C[C@@]1(C(=O)NCc2cc(-c3ccc(C(F)(F)F)nc3)ncn2)C[C@@H](F)CN1S(=O)(=O)c1ccc(F)cc1 (single isomer, unassigned) [Example 142]	92
O=C(NCc1cc(-c2ccc(C(F)(F)F)nc2)c(F)cn1)[C@@H]1[C@@H](F)CCN1S(=O)(=O)c1ccc(F)cc1 [Example 115, (2R,3S)-3-fluoro-1-(4-fluorophenyl)sulfonyl-N-[[5-fluoro-4-[6-(trifluoromethyl)-3-pyridyl]-2-pyridyl]methyl]pyrrolidine-2-carboxamide]	13
O=C(NCc1cn(-c2ccc(C(F)(F)F)nc2)nc1Cl)[C@@H]1C[C@@H](F)CN1S(=O)(=O)c1ccc(F)cc1 [Example 146, (2S,4R)—N-([3-chloro-1-[6-(trifluoromethyl)pyridin-3-yl]-1H-pyrazol-4-yl]methyl)-4-fluoro-1-[(4-fluorobenzene)sulfonyl]pyrrolidine-2-carboxamide]	78
Cc1cnc(-c2cnc(C(F)(F)F)nc2)cc1CNC(=O)[C@@H]1C[C@@H](F)CN1S(=O)(=O)c1ccc(F)cc1 [Example 169, (2S,4R)-4-fluoro-1-[(4-fluorobenzene)sulfonyl]-N-([5-methyl-2-[2-(trifluoromethyl)pyrimidin-5-yl]pyridin-4-yl]methyl)pyrrolidine-2-carboxamide]	116
O=C(NCc1cncc(-c2cnc(C(F)(F)F)nc2)c1)[C@@H]1C[C@@H](F)CN1S(=O)(=O)c1ccc(F)cc1 [Example 195, (2S,4R)-4-fluoro-1-(4-fluorophenyl)sulfonyl-N-[[5-[2-(trifluoromethyl)pyrimidin-5-yl]-3-pyridyl]methyl]pyrrolidine-2-carboxamide]	795
O=C(NCc1cc(-c2ccc(C(F)F)cc2)ncn1)[C@@H]1[C@@H](F)CCN1S(=O)(=O)c1ccc(F)cc1 [Example 55, (2R,3S)—N-[[6-[4-(difluoromethyl)phenyl]pyrimidin-4-yl]methyl]-3-fluoro-1-(4-fluorophenyl)sulfonyl-pyrrolidine-2-carboxamide]	33
O=C(NCc1cc(Cl)nc(-c2cnc(C(F)(F)F)nc2)c1)[C@@H]1C[C@@H](F)CN1S(=O)(=O)c1ccc(F)cc1 [Example 62, (2S,4R)—N-[[2-chloro-6-[2-(trifluoromethyl)pyrimidin-5-yl]-4-pyridyl]methyl]-4-fluoro-1-(4-fluorophenyl)sulfonyl-pyrrolidine-2-carboxamide]	14
O=C(NCc1cc(-c2ccc(C(F)F)cc2)ncn1)[C@@H]1C[C@@H](F)CN1S(=O)(=O)c1ccc(F)cc1 [Example 63, (2S,4R)—N-[[6-[4-(difluoromethyl)phenyl]pyrimidin-4-yl]methyl]-4-fluoro-1-(4-fluorophenyl)sulfonyl-pyrrolidine-2-carboxamide]	318
O=C(NCc1cc(-c2ccc(OC(F)F)cc2)c(F)cn1)[C@@H]1C[C@@H](F)CN1S(=O)(=O)c1ccc(F)cc1 [Example 77, (2S,4R)—N-([4-[4-(difluoromethoxy)phenyl]-5-fluoropyridin-2-yl]methyl)-4-fluoro-1-[(4-fluorobenzene)sulfonyl]pyrrolidine-2-carboxamide]	53
COc1nn(-c2ccc(C(F)(F)F)cc2)cc1CNC(=O)[C@@H]1C[C@@H](F)CN1S(=O)(=O)c1ccc(F)cc1 [Example 135, (2S,4R)-4-fluoro-1-[(4-fluorobenzene)sulfonyl]-N-([3-methoxy-1-[4-(trifluoromethyl)phenyl]-1H-pyrazol-4-yl]methyl)pyrrolidine-2-carboxamide]	11
O=C(NCc1cc(N2C3CCC2CC(C(F)(F)F)C3)c(F)cn1)[C@@H]1C[C@@H](F)CN1S(=O)(=O)c1ccc(F)cc1 (stereo partly drawn) [Example 121, (2S,4R)-4-fluoro-N-([5-fluoro-4-[3-(trifluoromethyl)-8-azabicyclo[3.2.1]octan-8-yl]pyridin-2-yl]methyl)-1-[(4-fluorobenzene)sulfonyl]pyrrolidine-2-carboxamide]	741
